Values quoted from earlier work, collected in PubChem BioAssay AID1259409 (Chemical Carcinogenesis Research Information System (CCRIS), 2018).
Values joined by “and” are separate entries in the source; they are usually repeats but may differ in a detail not shown here. Equal values may be shown once.

System: rodent chemically induced tumor inhibition, incidence and multiplicity
Assay: CCRIS tumor inhibitor studies
Conditions: Promoter: NONE USED

Compound: CCC(=O)O[C@H]1CC[C@H]2[C@@H]3CCC4=CC(=O)CC[C@]4(C)[C@H]3CC[C@]12C
- tumour outcome (control, treated, inhibition, significance) (Carcinogen: CADMIUM CHLORIDE, 10108-64-2, Dose [Inhibitor]: APPROXIMATELY NORMAL CIRCULATING LEVELS OF TESTOSTERONE BEGINNING 2 WK PRIOR TO CARCINOGEN TREATMENT, IMPLANTS REPLACED, Route [Inhibitor]: SUBCUTANEOUS IMPLANT, Species: RAT, Strain/Sex: F344/MALE, Target Tissue: Type of Lesion: HEMATOPOIETIC SYSTEM: LEUKEMIA, Dose [Carcinogen]: 20 UMOL 1/WK FOR 5 WK): 9/40 (23%), 10/37 (27%), -17%, not significant
- tumour outcome (control, treated, inhibition, significance) (Carcinogen: CADMIUM CHLORIDE, 10108-64-2, Dose [Inhibitor]: APPROXIMATELY NORMAL CIRCULATING LEVELS OF TESTOSTERONE BEGINNING 2 WK PRIOR TO CARCINOGEN TREATMENT, IMPLANTS REPLACED, Route [Inhibitor]: SUBCUTANEOUS IMPLANT, Species: RAT, Strain/Sex: F344/MALE, Target Tissue: Type of Lesion: INJECTION SITE: SARCOMA, Dose [Carcinogen]: 20 UMOL 1/WK FOR 5 WK): 28/40 (70%), 22/37 (59%), 16%, not significant
- tumour outcome (control, treated, inhibition, significance) (Carcinogen: CADMIUM CHLORIDE, 10108-64-2, Dose [Inhibitor]: APPROXIMATELY NORMAL CIRCULATING LEVELS OF TESTOSTERONE BEGINNING 2 WK PRIOR TO CARCINOGEN TREATMENT, IMPLANTS REPLACED, Route [Inhibitor]: SUBCUTANEOUS IMPLANT, Species: RAT, Strain/Sex: F344/MALE, Target Tissue: Type of Lesion: TESTES: TUMOR, Dose [Carcinogen]: 20 UMOL 1/WK FOR 5 WK): 34/40 (85%), 0/37 (0%), 100%, p<0.05
- tumour outcome (control, treated, inhibition, significance) (Carcinogen: N-NITROSOBIS(2-OXOPROPYL)AMINE, 60599-38-4, Dose [Inhibitor]: 0, 40 MG PELLET INSERTED IN THE INTERSCAPULAR REGION AND REPLACED EVERY 6 WK FOR LIFE BEGINNING POST LAST CARCINOGEN DOS, Route [Inhibitor]: SUBCUTANEOUS, Species: RAT, Strain/Sex: MRC/MALE, Target Tissue: Type of Lesion: COLON: TUMOR, Dose [Carcinogen]: 10 MG/KG 1/WK FOR 20 WK): 2/26 (8%), 1/24 (4%), 50%, not calculated
- tumour outcome (control, treated, inhibition, significance) (Carcinogen: N-NITROSOBIS(2-OXOPROPYL)AMINE, 60599-38-4, Dose [Inhibitor]: 0, 40 MG PELLET INSERTED IN THE INTERSCAPULAR REGION AND REPLACED EVERY 6 WK FOR LIFE BEGINNING POST LAST CARCINOGEN DOS, Route [Inhibitor]: SUBCUTANEOUS, Species: RAT, Strain/Sex: MRC/MALE, Target Tissue: Type of Lesion: RECTUM: TUMOR, Dose [Carcinogen]: 10 MG/KG 1/WK FOR 20 WK): 9/26 (35%), 14/24 (58%), -66%, not calculated
- tumour outcome (control, treated, inhibition, significance) (Carcinogen: N-NITROSOBIS(2-OXOPROPYL)AMINE, 60599-38-4, Dose [Inhibitor]: 0, 40 MG PELLET INSERTED IN THE INTERSCAPULAR REGION AND REPLACED EVERY 6 WK FOR LIFE BEGINNING WITH FIRST CARCINOGEN DO, Route [Inhibitor]: SUBCUTANEOUS, Species: RAT, Strain/Sex: MRC/MALE, Target Tissue: Type of Lesion: COLON: TUMOR, Dose [Carcinogen]: 10 MG/KG 1/WK FOR 20 WK): 2/26 (8%), 0/29 (0%), 100%, not calculated
- tumour outcome (control, treated, inhibition, significance) (Carcinogen: N-NITROSOBIS(2-OXOPROPYL)AMINE, 60599-38-4, Dose [Inhibitor]: 0, 40 MG PELLET INSERTED IN THE INTERSCAPULAR REGION AND REPLACED EVERY 6 WK FOR LIFE BEGINNING WITH FIRST CARCINOGEN DO, Route [Inhibitor]: SUBCUTANEOUS, Species: RAT, Strain/Sex: MRC/MALE, Target Tissue: Type of Lesion: RECTUM: TUMOR, Dose [Carcinogen]: 10 MG/KG 1/WK FOR 20 WK): 9/26 (35%), 0/29 (0%), 100%, p<0.005
- tumour outcome (control, treated, inhibition, significance) (Carcinogen: N-NITROSOBIS(2-OXOPROPYL)AMINE, 60599-38-4, Dose [Inhibitor]: 0, 40 MG PELLET INSERTED IN THE INTERSCAPULAR REGION AND REPLACED EVERY 6 WK FOR LIFE BEGINNING WITH FIRST CARCINOGEN DO, Route [Inhibitor]: SUBCUTANEOUS, Species: RAT, Strain/Sex: MRC/MALE, Target Tissue: Type of Lesion: RECTUM: TUMOR, Dose [Carcinogen]: 20 MG/KG 1/D FOR 3 D): 6/13 (46%), 0/25 (0%), 100%, p<0.005

Compound: CC(C)=CCC/C(C)=C/CC/C(C)=C/CCC1(C)CCc2cc(O)ccc2O1 (centres undefined)
- tumour outcome (control, treated, inhibition, significance) (Carcinogen: 7,12-DIMETHYLBENZ[A]ANTHRACENE, 57-97-6, Dose [Inhibitor]: 0, 3.381 UMOL/G IN DIET FOR DURATION OF STUDY (STUDY DURATION: 18 WK), Route [Inhibitor]: ORAL, Species: RAT, Strain/Sex: SPRAGUE-DAWLEY/FEMALE, Target Tissue: Type of Lesion: MAMMARY GLAND: TUMOR, Dose [Carcinogen]: 50 MG/KG IN SESAME OIL ONCE): 88%, 72%, 18%, not significant
- tumour outcome (control, treated, inhibition, significance) (Carcinogen: N-METHYL-N-NITROSOUREA, 684-93-5, Dose [Inhibitor]: 0, 3.381 UMOL/G IN DIET FOR DURATION OF STUDY (STUDY DURATION: 19 WK), Route [Inhibitor]: ORAL, Species: RAT, Strain/Sex: SPRAGUE-DAWLEY/FEMALE, Target Tissue: Type of Lesion: MAMMARY GLAND: TUMOR, Dose [Carcinogen]: 30 MG/KG IN ACIDIFIED SALINE ONCE): 60%, 76%, -27%, not significant

Compound: N#CO
- tumour outcome (control, treated, inhibition, significance) (Carcinogen: 1,2-DIMETHYLHYDRAZINE, 540-73-8, Dose [Inhibitor]: 0.013 MMOL/G IN DIET BEGINNING 1 WK POST LAST CARCINOGEN DOSE (STUDY DURATION: 42 WK), Route [Inhibitor]: ORAL, Species: MOUSE, Strain/Sex: CF-1/FEMALE, Target Tissue: Type of Lesion: LARGE BOWEL: ADENOCARCINOMA, Dose [Carcinogen]: 0.6 MG IN 0.2 ML EDTA SOLUTION (PH 6.5) 2X WK FOR 8 WKS.): 20%, 0%, 100%, p<0.05
- tumour outcome (control, treated, inhibition, significance) (Carcinogen: 1,2-DIMETHYLHYDRAZINE, 540-73-8, Dose [Inhibitor]: 0.013 MMOL/G IN DIET BEGINNING 1 WK POST LAST CARCINOGEN DOSE (STUDY DURATION: 42 WK), Route [Inhibitor]: ORAL, Species: MOUSE, Strain/Sex: CF-1/FEMALE, Target Tissue: Type of Lesion: LARGE BOWEL: ADENOMA, Dose [Carcinogen]: 0.6 MG IN 0.2 ML EDTA SOLUTION (PH 6.5) 2/WK FOR 8 WK): 41%, 18%, 56%, not significant
- tumour outcome (control, treated, inhibition, significance) (Carcinogen: 1,2-DIMETHYLHYDRAZINE, 540-73-8, Dose [Inhibitor]: 0.026 MMOL/G IN DIET BEGINNING 1 WK POSE LAST CARCINOGEN DOSE (STUDY DURATION: 42 WK), Route [Inhibitor]: ORAL, Species: MOUSE, Strain/Sex: CF-1/FEMALE, Target Tissue: Type of Lesion: LARGE BOWEL: ADENOMA, Dose [Carcinogen]: 0.6 MG IN 0.2 ML EDTA SOLUTION (PH 6.5) 2/WK FOR 8 WK): 41%, 17%, 58%, not significant
- tumour outcome (control, treated, inhibition, significance) (Carcinogen: 1,2-DIMETHYLHYDRAZINE, 540-73-8, Dose [Inhibitor]: 0.026 MMOL/G IN DIET BEGINNING 1 WK POST LAST CARCINOGEN DOSE (STUDY DURATION: 42 WK), Route [Inhibitor]: ORAL, Species: MOUSE, Strain/Sex: CF-1/FEMALE, Target Tissue: Type of Lesion: LARGE BOWEL: ADENOCARCINOMA, Dose [Carcinogen]: 0.6 MG IN 0.2 ML EDTA SOLUTION (PH 6.5) 2/WK FOR 8 WK): 15%, 6%, 60%, not significant and 20%, 6%, 70%, not significant and 18%, 6%, 67%, not significant
- tumour outcome (control, treated, inhibition, significance) (Carcinogen: 1,2-DIMETHYLHYDRAZINE, 540-73-8, Dose [Inhibitor]: 0.026 MMOL/G IN DIET BEGINNING 1 WK POST LAST CARCINOGEN DOSE (STUDY DURATION: 42 WK), Route [Inhibitor]: ORAL, Species: MOUSE, Strain/Sex: CF-1/FEMALE, Target Tissue: Type of Lesion: LARGE BOWEL: ADENOMA, Dose [Carcinogen]: 0.6 MG IN 0.2 ML EDTA SOLUTION (PH 6.5) 2/WK FOR 8 WK): 33%, 11%, 67%, not significant and 37%, 14%, 62%, p<0.05
- tumour outcome (control, treated, inhibition, significance) (Carcinogen: 7,12-DIMETHYLBENZ(A)ANTHRACENE, 57-97-6, Dose [Inhibitor]: 0.013 MMOL/G IN DIET BEGINNING 1 WK AFTER CARCINOGEN ADMINISTRATION (STUDY DURATION: 18 WK), Route [Inhibitor]: ORAL, Species: RAT, Strain/Sex: SPRAGUE-DAWLEY/FEMALE, Target Tissue: Type of Lesion: MAMMARY GLAND: TUMOR, Dose [Carcinogen]: 12 MG DMBA IN 1.0 ML OLIVE OIL ONCE): 100%, 77%, 23%, p<0.01
- tumour outcome (control, treated, inhibition, significance) (Carcinogen: 7,12-DIMETHYLBENZ(A)ANTHRACENE, 57-97-6, Dose [Inhibitor]: 0.026 MMOL/G IN DIET BEGINNING 1 WK AFTER CARCINOGEN ADMINISTRATION (STUDY DURATION: 16 WK), Route [Inhibitor]: ORAL, Species: RAT, Strain/Sex: SPRAGUE-DAWLEY/FEMALE, Target Tissue: Type of Lesion: MAMMARY GLAND: TUMOR, Dose [Carcinogen]: 12 MG DMBA IN 1.0 ML OLIVE OIL ONCE): 100%, 60%, 40%, p<0.001
- tumour outcome (control, treated, inhibition, significance) (Carcinogen: 7,12-DIMETHYLBENZ(A)ANTHRACENE, 57-97-6, Dose [Inhibitor]: 0.026 MMOL/G IN DIET BEGINNING 1 WK AFTER CARCINOGEN ADMINISTRATION (STUDY DURATION: 18 WK), Route [Inhibitor]: ORAL, Species: RAT, Strain/Sex: SPRAGUE-DAWLEY/FEMALE, Target Tissue: Type of Lesion: MAMMARY GLAND: TUMOR, Dose [Carcinogen]: 12 MG DMBA IN 1.0 ML OLIVE OIL ONCE): 94%, 63%, 33%, p<0.05 and 100%, 63%, 37%, p<0.01

Compound: C=C(C)C1C=CC(C)(O)CC1 (centres undefined)
- tumour outcome (control, treated, inhibition, significance) (Carcinogen: BENZO[A]PYRENE, 50-32-8, Dose [Inhibitor]: 0, 20 MG 3/WK FOR 4 WK ON DAYS OTHER THAN THE CARCINOGEN TREATMENT (STUDY DURATION: 20 WK), Route [Inhibitor]: GAVAGE, Species: MOUSE, Strain/Sex: STRAIN-A/FEMALE, Target Tissue: Type of Lesion: FORESTOMACH: TUMOR, Dose [Carcinogen]: 1 MG IN 0.2 ML COTTONSEED OIL 2/WK FOR 4 WK): 13/19 (68%), 7/14 (50%), 26%, not significant
